US8507470B2, “Substituted arylamide oxazepinopyrimidone derivatives” (Sanofi, priority 2008, dated 2013)
Where a name gives a salt, the structure may show the parent alone.

What was measured:
GSK3β = GSK3β (Homo sapiens, UniProt P49841); test: Inhibitory activity against GSK3β (33P-ATP phosphorylation of prephosphorylated GS1 peptide); assay type: biochemical; settings: protocol 4: commercial GSK3beta (Millipore), 7.5 μM GS1 peptide, 10 μM ATP, 90 minutes at room temperature
Method: Test Example: Inhibitory Activity of the Medicament of the Present Invention against GSK3β: Four different protocols can be used. In a first protocol: 7.5 μM of prephosphorylated GS1 peptide and 10 μM ATP (containing 300,000 cpm of ^33P-ATP) were incubated in 25 mM Tris-HCl, pH 7.5, 0.6 mM DTT, 6 mM MgCl2, 0.6 mM EGTA, 0.05 mg/ml BSA buffer for 1 hour at room temperature in the presence of GSK3beta (total reaction volume: 100 microliters). In a second protocol: 4.1 μM of prephosphorylated GS1 peptide and 42 μM ATP (containing 260,000 cpm ^33P-ATP) were incubated in 80 mM Mes-NaOH, pH 6.5, 1 mM Mg acetate, 0.5 mM EGTA, 5 mM 2-mercaptoethanol, 0.02% Tween 20, 10% glycerol buffer for 2 hours at room temperature in the presence of GSK3beta. In a third protocol: 7.5 μM of prephosphorylated GS1 peptide and 10 μM ATP (containing 300,000 cpm of ^33P-ATP) were incubated in 50 mM Hepes, pH 7.2, 1 mM DTT, 1 mM MgCl2, 1 mM EGTA, 0.01% Tween 20 buffer for one hour at room temperature in the presence of GSK3beta (total reaction volume: 100 microliters). In a fourth protocol: 7.5 μM of prephosphorylated GS1 peptide and 10 μM ATP (containing 300,000 cpm of ^33P-ATP) were incubated in 50 mM Hepes, pH 7.2, 1 mM DTT, 1 mM MgCl2, 1 mM EGTA, 0.01% Tween 20 buffer for 90 minutes at room temperature in the presence of commercial GSK3beta (Millipore) (total reaction volume: 100 microliters). Inhibitors were solubilised in DMSO (final solvent concentration in the reaction medium, 1%). The reaction was stopped with 100 microliters of a solution made of 25 g polyphosphoric acid (85% P2O5), 126 ml 85% H3PO4, H2O to 500 ml and then diluted to 1:100 before use. An aliquot of the reaction mixture was then transferred to Whatman P81 cation exchange filters and rinsed with the solution described above. Incorporated ^33P radioactivity was determined by liquid scintillation spectrometry. The phosphorylated GS-1 peptide had the following sequence: NH2-[…](P)EDEE-COOH.(Woodgett, J. R. (1989) Analytical Biochemistry 180, 237-241.

GSK3β, sequence (P49841 whole entry): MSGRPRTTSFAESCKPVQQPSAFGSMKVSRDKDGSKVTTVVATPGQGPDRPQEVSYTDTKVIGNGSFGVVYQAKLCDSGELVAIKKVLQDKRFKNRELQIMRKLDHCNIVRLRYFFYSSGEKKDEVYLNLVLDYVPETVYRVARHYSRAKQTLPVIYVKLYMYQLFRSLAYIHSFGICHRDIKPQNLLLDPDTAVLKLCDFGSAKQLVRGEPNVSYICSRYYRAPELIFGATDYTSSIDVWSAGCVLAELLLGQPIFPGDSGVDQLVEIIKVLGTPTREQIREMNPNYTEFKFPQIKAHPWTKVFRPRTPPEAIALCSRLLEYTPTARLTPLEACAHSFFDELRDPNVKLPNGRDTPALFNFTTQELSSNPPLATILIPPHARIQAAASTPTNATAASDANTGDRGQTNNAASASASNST

SMILES | melting point [°C] | IC50 (GSK3β) [nM]
COc1ccc(S(N)(=O)=O)cc1C(=O)NC1COCCn2c1nc(-c1ccncn1)cc2=O (racemic) [compound No. 7, (+/−)-2-Methoxy-N-(4-oxo-2-pyrimidin-4-yl-5,6,8,9-tetrahydro-4H-7-oxa-1,4a-diaza-benzocyclohepten-9-yl)-5-sulfamoyl-benzamide] | 257 to 259 | 0.5
COc1ccccc1CNC1COCCn2c1nc(-c1ccncn1)cc2=O (racemic) (as salt: HCl) [compound No. 21, (+/−)-9-(2-Methoxy-benzylamino)-2-pyrimidin-4-yl-5,6,8,9-tetrahydro-7-oxa-1,4a-diaza-benzocyclohepten-4-one] | 254 to 256 | 
COc1ccc(Cl)cc1C(=O)NC1COCCn2c1nc(-c1ccncc1)cc2=O (racemic) [compound No. 19, (+/−)-5-Chloro-2-methoxy-N-(4-oxo-2-pyridin-4-yl-5,6,8,9-tetrahydro-4H-7-oxa-1,4a-diaza-benzocyclohepten-9-yl)-benzamide] | 235 to 237 | 2

Continued by falling IC50 (GSK3β), values first:

melting point [°C] | IC50 (GSK3β) [nM] | SMILES
 | 41 | COc1ccccc1CNC1COCCn2c1nc(-c1ccncn1)cc2=O (racemic) [compound No. 21, (+/−)-9-(2-Methoxy-benzylamino)-2-pyrimidin-4-yl-5,6,8,9-tetrahydro-7-oxa-1,4a-diaza-benzocyclohepten-4-one]
202 to 204 | 10 | CC(=O)Oc1ccccc1C(=O)NC1COCCn2c1nc(-c1ccncn1)cc2=O (racemic) [compound No. 14, (+/−)-Acetic acid 2-(4-oxo-2-pyrimidin-4-yl-5,6,8,9-tetrahydro-4H-7-oxa-1,4a-diaza-benzocyclohepten-9-ylcarbamoyl)-phenyl ester]
